These are literature values, as cited in US20250089716A1, “IMMEDIATE-RELEASE PESTICIDE FORMULATION” (priority 2022, published 2025).

For this data set the following is noted: extender component; unit not given.
`[Cl-].[K+]` [Potassium chloride]: the Water solubility is on record as 34 g/100 ml.

Take `OC[C@@H](O)[C@@H](O)[C@H](O)[C@@H](O)CO` [Sorbitol]: the Water solubility is 235 g/100 ml.

As to `OC[C@H]1O[C@@](CO)(O[C@H]2O[C@H](CO)[C@@H](O)[C@H](O)[C@H]2O)[C@@H](O)[C@@H]1O` [Sucrose], the Water solubility is listed as 202 g/100 ml.

`NC(N)=O` [Urea]: the Water solubility is 100 g/100 ml.

`O=C[C@H](O)[C@@H](O)[C@H](O)CO` [Xylose]: the Water solubility was 133 g/100 ml.

With `[Cl-].[Cl-].[Zn+2]` [Zinc chloride], the Water solubility is reported as 395 g/100 ml.

On to Flactose, for which the Water solubility was 375 g/100 ml.
